Measurements taken from patent publication US20260069599A1, “INHIBITORS OF BROMODOMAIN-CONTAINING PROTEIN 4 AND PHOSPHOINOSITIDE 3-KINASE” (Board of Regents of the University of Nebraska, priority 2022, published 2026).
pIC50: −log10 of the molar value. “Also recorded” adds a separate entry of the source.

Key:
HD-MB03 cells [1] = assay: Annexin V/PI apoptosis assay in HD-MB03 cells; assay type: cell-based, human; conditions: 48 hours of treatment; untreated 29.76%
Protocol: (§1) For apoptosis assay, the cells were collected as above and stained with 500 μL 1× binding buffer containing 5 μL annexin V-FITC and 10 μL propidium iodide (PI) in the dark for 5 minutes. Flow cytometry (FACSCalibur™ cytometer, BD Biosciences) was performed to quantify and calculate the cell apoptosis rate. AV-FITC values were set horizontally, and PI values were set as vertical axes. All experiments were performed in triplicate.

HD-MB03 cells [2] = assay: Cell cycle analysis in HD-MB03 cells; assay type: cell-based, human; conditions: 5 μM, 48 hours; control 44.7%
From the text: FIGS. 3A-3F show the effect of MDP5 treatment on cell cycle analysis, induction of apoptosis, and colony formation assay in MB cells. […] Histograms show the quantitative analysis of cell cycle assay for DAOY (FIG. 3A) and HD-MB03 (FIG. 3B) cells (n=5; mean±S.D., p<0.05). […] FIG. 3C provides images of cells treated with the indicated compounds. […] FIGS. 3D and 3E provide graphs of the apoptotic assay showing higher numbers of apoptotic cells in MDP5 treated groups (n=5; mean±S.D.; p<0.05). FIG. 3F provides a graph of the relative expression of BCL2 and MYCN target genes after treatment, as determined by RT-PCR.
Cell cycle distribution was determined in proliferating MB cells. […] Cells were harvested with 0.25% EDTA-free trypsin (Gibco) and washed twice in ice-cold PBS. Control and treated cells (0.1×10^6) were stained with FxCycle™ PI/RNase Staining Solution (ThermoFisher Scientific) and analyzed for DNA content via flow cytometry.

[3] = test system: DAOY and HD-MB03 cell-generated tumors; assay: Subcutaneous MB tumor xenograft model; assay type: in vivo; conditions: for tumor growth / tumor burden: 15 mg/kg dose, vs vehicle treated control
Protocol: All the animal-related experiments were performed according to the Institutional Animal Care and Use Committee (IACUC) of the University of Nebraska Medical Center's approved protocol and met federal guidelines. Subcutaneous and orthotopic xenograft models were generated in this study. For establishing the xenograft model, DAOY cells (1×10^6) were injected into the right flank of 8-10 weeks old male and female mice. Tumor growth was measured non-invasively by using vernier calipers. For both measurements, tumor volumes were calculated by using the following formula: Volume=(Length×Width^2)/2.
A total of seven injections were given, and the mouse body weights were measured before every injection. The tumor growth was monitored by calipers in the case of the xenograft model and by IVIS imaging for the orthotopic model. For histological examination, the major organs of representative mice from each animal group were dissected and stained with H&E. Tissues after being fixed with 10% paraformaldehyde solution for 24 hours were embedded in 5 μm thick sections of paraffin, and were stained for different proteins. Stained slides were imaged at 40× magnification using an iScan HT Slide Scanner (Ventana Medical Systems, Inc, AZ).

ONS-76 cells = assay: Side population (SP) assay; assay type: cell-based; conditions: 30 minutes preincubation; control 4.57%
Protocol: After washing thrice with staining buffer, 1×10^6 cells were stained with 5 μg/mL of Hoechst 33342 (Thermo Scientific; 62,249) for 1 hour in an incubator with occasional shaking every 20 minutes. The PI solution 5 μL was added to exclude dead cells and analyzed with flow cytometry (LSRII, BD Biosciences).

DAOY cells [4] = assay: Annexin V/PI apoptosis assay in DAOY cells; assay type: cell-based, human; conditions: 48 hours of treatment; untreated 25.61%
Protocol: as §1

DAOY cells [5] = assay: Cell viability MTT assay in DAOY cells; assay type: cell-based, human; conditions: 48-72 hours
Protocol: For cell viability assay, DAOY cells from SHH-MB group and HD-MB03 from Group 3 MB were exposed to new analogs in a range of concentrations. In brief, cells were seeded in 96-well plate with a density of 3×10^3 cells/well density for 16 hours. Cells were then treated with different drug concentrations for 48-72 hours. MTT assay reagent was added to the cells and after incubation for 4 hours, formazan crystals were dissolved in 200 μL DMSO, and the absorbance was determined using a microplate reader (Molecular Devices Me5). The IC50 was determined by nonlinear least square regression by performing each experiment in triplicate.

BRD4-BD2 = BRD4-BD2 (Homo sapiens, UniProt O60885); assay: Protein Thermal Shift (PTS) assay on BRD4-BD2; assay type: binding; parameters: polyhistidine (N, cleaved yes); made in house; host or cells: E. coli (T7 express); conditions: 100 μM ligand, 20 μM BD protein
Protocol: The genes encoding human BRD2-BD1, BRD2-BD2, and BRD4-BD2 were codon-optimized for expression in E. coli. […] The sequence-confirmed plasmids were used to transform T7 express E coli. Large-scale cell cultures were grown in LB media containing […] carbenicillin and incubated with shaking at 37° C. until the OD600 nm reached 0.6. Then cultures were cooled to 16° C., and 1 mM isopropyl β-D-1-thiogalactopyranoside was added to induce the protein expression. After 20 hours of incubation, cells were harvested. The resulting cell pellet was resuspended in a lysis buffer containing 50 mM Tris pH 7.5, 200 mM NaCl, 0.5 mM imidazole, and 0.3 mM tris(2-carboxyethyl) phosphine (TECP). After the addition of DNase I and lysozyme, the cell suspension was incubated on ice for 30 minutes and lysed by sonication. The lysate was clarified by centrifugation at 12,000 rpm for 45 minutes. The resulting supernatant was applied to a 5 mL metal affinity cobalt column pre-equilibrated with lysis buffer. Then, 25 column volumes of lysis buffer were passed through the column to eliminate unbound E coli proteins. Recombinant protein was eluted isocratically with the elution buffer containing 50 mM Tris pH 7.5, 200 mM NaCl, 150 mM imidazole, and 0.3 mM TECP. The rhinovirus 3C protease was added to the eluted recombinant protein to cleave the N-terminal Histidine tag and the sample dialyzed against a buffer containing 50 mM Tris pH 7.5, 100 mM NaCl and 0.3 mM TECP. After 12 hours, the protein solution was passed through a 5 ml cobalt column, which was pre-equilibrated with dialysis buffer, and the recombinant protein lacking the His-tag was collected from the flowthrough.
Each reaction used 20 μM concentration of recombinant BD protein in a 50 mM Tris pH 7.5 buffer containing 100 mM NaCl, 0.3 mM tris(2-carboxyethyl) phosphine HCl, and 1% dimethyl sulfoxide. Protein Thermal Shift Dye (ThermoFisher) was also added at 1× concentration. Under these conditions, 3 protein melting curves with each respective BD and 100 μM final concentration of ligand were performed from 25 to 95° C. with a ramp rate of 0.5° C./minute. Evaluation of the derivative of the fluorescence signal employed the Applied Bioscience Protein Thermal Shift Software version 1.3 to determine the average melting temperature (Tm) for each sample and the standard deviation(s) of those Tm values.

| SMILES | percentage of apoptosis, HD-MB03 (HD-MB03 cells [1]) [%] | cells in the G1 phase, HD-MB03 (HD-MB03 cells [2]) [%] | tumor growth / tumor burden [3] | percentage of SP proportion (ONS-76 cells) [%] | percentage of apoptotic cells, DAOY (DAOY cells [4]) [%] | pIC50 (DAOY cells [5]) | BRD4-BD2 Tm increase (BRD4-BD2) [°C] | pIC50 (DAOY cells [5]; Homo sapiens, Daoy) | BRD4-BD2 Tm decrease (BRD4-BD2; thermal destabilization) [°C] | toxicity / tolerability by body weight ([3]; 20 mg/kg i.v. every third day) | histologic examination of major organs (liver, lung, spleen, heart, kidneys) ([3]; 20 mg/kg, after completion of treatment) | tumor growth (tumor volume) ([3]; 20 mg/kg, vs vehicle/control group) | H&E staining and Ki-67 IHC of tumors ([3]; DAOY and HD-MB03 generated tumors) | tolerability by body weight and histological examination of vital organs ([3]; tested dose of b195 (15 mg/kg), vs vehicle control) |
| --- | --- | --- | --- | --- | --- | --- | --- | --- | --- | --- | --- | --- | --- | --- |
| O=c1cc(N2CCOCC2)oc2c(-c3ccc4c(c3)OCCO4)csc12 [SF2523, reference compound] | 54 | 58.9 | significant inhibition of tumor growth | 2.57 | 56.50 | 4.90 | 3.4 | – | – | – | – | – | – | – |
| O=C(/C=C/N1CCOCC1)c1cccc(-c2cc3c(cc2Br)OCCO3)c1O [MDP1, (E)-1-(3-(7-bromo-2,3-dihydrobenzo [b][1,4]dioxin-6-yl)-2-hydroxyphenyl)-3-morpholinoprop-2-en-1-one] | 65.66 | 26.2 | significant inhibition of tumor growth | 0.7 | 61.31 | – | – | 5.26 | 1.3 | – | – | – | – | – |
| O=c1cc(N2CCOCC2)oc2c(-c3ccc4c(c3)OCCO4)cccc12 [MDP5, 8-(2,3-dihydrobenzo [b][1,4]dioxin-6-yl)-2-morpholino-4H-chromen-4-one] | 65.15 | 52.2 | significant inhibition of tumor growth | 0.9 | 70.35 | 5.26 | 1.7 | 5.25 | – | no sign of toxicity; also recorded: well tolerated (no bodyweight change) | did not demonstrate toxicity | significantly affected tumor growth; also recorded: reduced tumor growth compared to the control group | suppressed cell proliferation and decreased tumor burden | well tolerated |
